According to patent US7732449B2, “Inhibitors of cathepsin S” (IRM LLC, priority 2003, dated 2010):
Like-named read-outs stand apart in the source and are kept apart here.

Columns and labels:
Assay type in all cases: biochemical
[1] = target: T1, Cathepsin K (Homo sapiens, UniProt P43235); assay: Cathepsin K inhibition, fluorogenic peptide substrate kinetic assay (selectivity); conditions: ratio of cathepsin K inhibition constant to cathepsin S inhibition constant
T1 sequence (P43235 115-329): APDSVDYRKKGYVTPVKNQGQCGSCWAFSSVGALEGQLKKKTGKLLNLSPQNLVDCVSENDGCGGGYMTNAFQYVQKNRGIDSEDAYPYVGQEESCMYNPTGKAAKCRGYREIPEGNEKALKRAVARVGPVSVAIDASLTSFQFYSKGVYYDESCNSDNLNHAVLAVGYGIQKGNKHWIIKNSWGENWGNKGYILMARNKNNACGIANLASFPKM

[2] = target: Cathepsin L (Homo sapiens, UniProt P07711); assay: Cathepsin L inhibition, fluorogenic peptide substrate kinetic assay (selectivity); conditions: ratio of cathepsin L inhibition constant to cathepsin S inhibition constant
Sequence of Cathepsin L (P07711 114-333, species assumed): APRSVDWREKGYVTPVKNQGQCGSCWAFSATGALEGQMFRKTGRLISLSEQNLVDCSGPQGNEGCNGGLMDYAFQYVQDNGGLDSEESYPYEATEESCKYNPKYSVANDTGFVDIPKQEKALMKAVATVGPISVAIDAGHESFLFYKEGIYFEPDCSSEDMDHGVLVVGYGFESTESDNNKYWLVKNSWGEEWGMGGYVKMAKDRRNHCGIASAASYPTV

[3] = target: Cathepsin B (Homo sapiens, UniProt P07858); assay: Cathepsin B inhibition, fluorogenic peptide substrate kinetic assay (selectivity); conditions: ratio of cathepsin B inhibition constant to cathepsin S inhibition constant;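 also: value is the cathepsin B inhibition constant divided by the cathepsin S one, each from kinetic fluorescence readings (ex 380 nm, em 450 nm) of a 10 µM coumarin peptide substrate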
[4] = target: Cathepsin S (Homo sapiens, UniProt P25774); assay: Cathepsin S inhibition, fluorogenic peptide substrate kinetic assay;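 also: cleavage rate of a coumarin-labelled peptide substrate (50 µM) read as fluorescence increase at Ex 380 nm and Em 450 nm, relative to inhibitor-free control reactions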
Sequence of Cathepsin S (P25774 115-331, species assumed): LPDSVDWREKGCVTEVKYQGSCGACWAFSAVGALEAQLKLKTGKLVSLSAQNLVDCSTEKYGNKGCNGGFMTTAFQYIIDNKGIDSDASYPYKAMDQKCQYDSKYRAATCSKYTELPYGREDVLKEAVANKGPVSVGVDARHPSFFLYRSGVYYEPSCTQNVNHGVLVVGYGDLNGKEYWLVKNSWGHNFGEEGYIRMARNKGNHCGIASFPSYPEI

[5] = Cathepsin S inhibition constant, pH5.5, 20 minutes preincubation at room temperature, read-out: Ki Cat. S

| Selectivity for Cat. S over Cat. K [1] | Selectivity for Cat. S over Cat. L [2] | Selectivity for Cat. S over Cat. B [3] | Ki [4, 5] | Ki [4] | Structure (SMILES) |
| --- | --- | --- | --- | --- | --- |
| + (+, >10) | + (+, >10) | + (+, >10) | 1000 to 10000 nM |  | Cc1cc(NCCNC(=O)[C@H](CCC(C)(C)C)CC(=O)N2CCOCC2)no1 [Example 49, (R)-5,5-Dimethyl-2-(2-morpholin-4-yl-2-oxo-ethyl)-hexanoic acid [2-(5-methyl-isoxazol-3-ylamino)-ethyl]-amide] |
| +++ (+++, >1000) | ++ (++, >100) | +++ (+++, >1000) | < 100 nM |  | O=C(N[C@H](CNc1ccc(OC(F)(F)F)cc1)c1ccccc1)[C@H](CCC1CCCC1)CC(=O)N1CCOCC1 [Example 46, 2-(R)-(2-Cyclopentyl-ethyl)-4-morpholin-4-yl-4-oxo-N-[1-(S)-phenyl-2-(4-trifluoromethoxy-phenylamino)-ethyl]-butyramide] |
| ++ (++, >100) | ++ (++, >100) | ++ (++, >100) | 100 to 1000 nM |  | C[C@@H](CNc1ccc(OC(F)(F)F)cc1)NC(=O)[C@@H](CC(=O)N1CCOCC1)CC1CCC2(CC1)CC2 [Example 65, N-[1-(S)-Methyl-2-(4-trifluoromethoxy-phenylamino)-ethyl]-4-morpholin-4-yl-4-oxo-2-(R)-spiro[2.5]oct-6-ylmethyl-butyramide] |
| +++ (+++, >1000) | + (+, >10) | +++ (+++, >1000) | < 100 nM |  | C[C@@H](CN1CC(C)(C)c2cc(F)ccc21)NC(=O)[C@H](CC1CCCCC1)NC(=O)N1CCOCC1 [Example 80, (S,S)-Morpholine-4-carboxylic acid {2-cyclohexyl-1-[2-(5-fluoro-3,3-dimethyl-2,3-dihydro-indol-1-yl)-1-methyl-ethylcarbamoyl]-ethyl}-amide] |
| + (+, >10) | + (+, >10) | + (+, >10) |  | 1000 to 10000 nM | C[C@@H](CNc1ccc(OC(F)(F)F)cc1)NC(=O)[C@@H](CC(=O)N1CCOCC1)c1ccc(C(F)(F)F)cc1 [Example 60, N-[1-(S)-Methyl-2-(4-trifluoromethoxy-phenylamino)-ethyl]-4-morpholin-4-yl-4-oxo-2-(S)-(4-trifluoromethyl-phenyl)-butyramide] |
| ++ (++, >100) | ++ (++, >100) | ++ (++, >100) |  | 100 to 1000 nM | O=C(N[C@H](CNc1ccc(OC(F)(F)F)cc1)C1CC1)[C@@H](CC(=O)N1CCOCC1)c1ccc(C(F)(F)F)cc1 [Example 70, N-[1-(S)-Cyclopropyl-2-(4-trifluoromethoxy-phenylamino)-ethyl]-4-morpholin-4-yl-4-oxo-2-(S)-(4-trifluoromethyl-phenyl)-butyramide] |
| +++ (+++, >1000) | ++ (++, >100) | +++ (+++, >1000) | < 100 nM |  | C[C@@H](CN1CC(C)(C)c2cc(F)ccc21)NC(=O)[C@@H](CC(=O)N1CCOCC1)CC1CCCCC1 [Example 54, 2-(R)-Cyclohexylmethyl-N-[2-(5-fluoro-3,3-dimethyl-2,3-dihydro-indol-1-yl)-1-(S)-methyl-ethyl]-4-morpholin-4-yl-4-oxo-butyramide] |
| + (+, >10) | + (+, >10) | ++ (++, >100) | 100 to 1000 nM |  | COc1ccc(NC[C@@H](NC(=O)[C@@H](CC(=O)N2CCOCC2)c2ccc(F)cc2)C(C)C)cn1 [Example 64, 2-(S)-(4-Fluoro-phenyl)-N-{1-(S)-[(6-methoxy-pyridin-3-ylamino)-methyl]-2-methyl-propyl}-4-morpholin-4-yl-4-oxo-butyramide] |
| + (+, >10) | ++ (++, >100) | ++ (++, >100) | 100 to 1000 nM |  | CC1(C)CN(C[C@@H](NC(=O)[C@@H](CC(=O)N2CCOCC2)c2ccc(C(F)(F)F)cc2)C2CC2)c2ccc(F)cc21 [Example 69, N-[1-(S)-Cyclopropyl-2-(5-fluoro-3,3-dimethyl-2,3-dihydro-indol-1-yl)-ethyl]-4-morpholin-4-yl-4-oxo-2-(S)-(4-trifluoromethyl-phenyl)-butyramide] |
| + (+, >10) | + (+, >10) | + (+, >10) | 1000 to 10000 nM |  | CC(=O)N1CCN(C(=O)[C@H](CC2CCCCC2)OC(=O)N[C@@H](C)CN2c3ccc(F)cc3CC2(C)C)CC1 [Example 94, (S,S)-[2-(5-Fluoro-2,2-dimethyl-2,3-dihydro-indol-1-yl)-1-methyl-ethyl]-carbamic acid 2-(4-acetyl-piperazin-1-yl)-1-cyclohexylmethyl-2-oxo-ethyl ester] |

Second part, the molecule before the results:

| Structure (SMILES) | Selectivity for Cat. S over Cat. K [1] | Selectivity for Cat. S over Cat. L [2] | Selectivity for Cat. S over Cat. B [3] | Ki [4, 5] | Ki [4] |
| --- | --- | --- | --- | --- | --- |
| O=C(NCCNc1ccc(F)cc1)[C@H](CC1CCCCC1)NC(=O)N1CCOCC1 [Example 3, Morpholine-4-carboxylic acid {2-cyclohexyl-1-(S)-[2-(4-fluoro-phenylamino)-ethylcarbamoyl]-ethyl}-amide] | ++ (++, >100) | + (+, >10) | ++ (++, >100) | < 100 nM |  |
| O=C(NCCNc1ccc(F)cc1)O[C@@H](CC1CCCCC1)C(=O)N1CCOCC1 [Example 5, [2-(4-Fluoro-phenylamino)-ethyl]-carbamic acid 1-(S)-cyclohexylmethyl-2-morpholin-4-yl-2-oxo-ethyl ester] | + (+, >10) | + (+, >10) | + (+, >10) | 1000 to 10000 nM |  |
| CC(C)[C@@H](CNc1ccc(OC(F)(F)F)cc1)NC(=O)[C@@H](CC(=O)N1CCOCC1)c1ccc(Cl)cc1 [Example 42, 2-(S)-(4-Chloro-phenyl)-N-{2-methyl-1-(S)-[(4-trifluoromethoxy-phenylamino)-methyl]-propyl}-4-morpholin-4-yl-4-oxo-butyramide] | +++ (+++, >1000) | ++ (++, >100) | +++ (+++, >1000) |  | < 100 nM |
| COc1ccc(NCCNC(=O)[C@H](CC2CCCCC2)NC(=O)N2CCOCC2)cc1 [Example 4, Morpholine-4-carboxylic acid {2-cyclohexyl-1-(S)-[2-(4-methoxy-phenylamino)-ethylcarbamoyl]-ethyl}-amide] | ++ (++, >100) | + (+, >10) | +++ (+++, >1000) | < 100 nM |  |
| C[C@@H](CNc1ccc(OC(F)(F)F)cc1)NC(=O)[C@@H](CC(=O)N1CCOCC1)CC1CCCCC1 [Example 14, 2-(R)-Cyclohexylmethyl-N-[1-(S)-methyl-2-(4-trifluoromethoxy-phenylamino)-ethyl]-4-morpholin-4-yl-4-oxo-butyramide] | ++ (++, >100) | ++ (++, >100) | +++ (+++, >1000) |  | < 100 nM |
| CC[C@@H](CNc1ccc(OC(F)(F)F)cc1)NC(=O)[C@H](CCC1CCCC1)CC(=O)N1CCOCC1 [Example 36, 2-(R)-(2-Cyclopentyl-ethyl)-4-morpholin-4-yl-4-oxo-N-{1-(S)-[(4-trifluoromethoxy-phenylamino)-methyl]-propyl}-butyramide] | ++ (++, >100) | + (+, >10) | +++ (+++, >1000) | < 100 nM |  |
| CCC[C@@H](CNc1ccc(OC(F)(F)F)cc1)NC(=O)[C@@H](CC(=O)N1CCOCC1)c1ccccc1 [Example 39, 4-Morpholin-4-yl-4-oxo-2-(S)-phenyl-N-{1-(S)-[(4-trifluoromethoxy-phenylamino)-methyl]-butyl}-butyramide] | + (+, >10) | ++ (++, >100) | +++ (+++, >1000) | < 100 nM |  |
| C[C@@H](CNc1ccc(OC(F)(F)F)cc1)NC(=O)[C@H](CCC1CCCCC1)CC(=O)N1CCOCC1 [Example 21, 2-(R)-(2-Cyclohexyl-ethyl)-N-[1-(S)-methyl-2-(4-trifluoromethoxy-phenylamino)-ethyl]-4-morpholin-4-yl-4-oxo-butyramide] | ++ (++, >100) | +++ (+++, >1000) | +++ (+++, >1000) |  | < 100 nM |
| C[C@@H](CNc1ccc(OC(F)(F)F)cc1)NC(=O)[C@@H](CC(=O)N1CCOCC1)CC1CCCC1 [Example 15, 2-(R)-Cyclopentylmethyl-N-[1-(S)-methyl-2-(4-trifluoromethoxy-phenylamino)-ethyl]-4-morpholin-4-yl-4-oxo-butyramide] | ++ (++, >100) | ++ (++, >100) | +++ (+++, >1000) |  | < 100 nM |
| O=C(NCCNc1ccc(F)cc1)[C@@H](CC(=O)N1CCOCC1)CC1CCCCC1 [Example 6, 2-(R)-Cyclohexylmethyl-N-[2-(4-fluoro-phenylamino)-ethyl]-4-morpholin-4-yl-4-oxo-butyramide] | + (+, >10) | + (+, >10) | + (+, >10) |  | 1000 to 10000 nM |
